How the values were obtained:
MPTP mouse model of PD [1] = test: Aminoindan in MPTP mouse model of PD, striatal dopamine by HPLC; assay type: in vivo; settings: MPTP mice; SR by ALZET pump for 12 days, compared with vehicle or daily IP injection of same drug
Protocol: (§1) Striatum tissue samples were homogenized in ice in 500 μl homogenization buffer (0.1M perchloric acid, 0.02% EDTA and 1% ETOH) using OMNI Tip homogenizing kit of OMNI International (intermediate speed, 3×10 seconds with 5 seconds intervals). The homogenates were sonicated for 5 min and were then centrifuged at 15,000 rpm at 4° C. for 15 min. The supernatants were transferred into fresh tubes and dopamine content was analyzed by HPLC.
Male C57B1/6 mice weighing 20+/−1 g were used in all experiments (10 mice per group). MPTP was administrated by IP injection at a dose of 40 mg/Kg per day for 5 days. Controls were naïve untreated mice injected with saline, and MPTP-treated mice injected with saline. Aminoindan was applied for 12 days either by daily IP injection or by sustained release using an ALZET pump implanted IP. The effect of the treatments was assessed by measurement of dopamine and its metabolites (dihydroxyphenylacetic acid and homovanillic acid) in left and right striatum taken from the mice at the end of the experiment. Striatum tissue samples were prepared for HPLC as described in Experimental.

MPTP mouse model of PD [2] = test: Rasagiline-pramipexole combinations in MPTP mouse model of PD, striatal dopamine by HPLC; assay type: in vivo; settings: for dopamine levels compared to naïve mice: sustained release over 24 hours
Source text: A significant body of biochemical data from human brain autopsy studies and those from animal models point to an ongoing process of oxidative stress in the substantia nigra which could initiate dopaminergic neurodegeneration.
MPTP is converted in the brain into the positively charged molecule MPP^+ (1-methyl-4-phenylpyridinium) by the enzyme monoamine oxidase (MAO)-B, causing parkinsonism in primates by killing certain dopamine-producing neurons in the substantia nigra. MPP^+ acts by interfering with oxidative phosphorylation in mitochondria, causing depletion of ATP and cell death.
as §1
The study included 10 groups of about 7-9 mice each, which were treated according to Table 1. […] MPTP was daily injected, during the initial 5 days (days 0-4), and the drug combinations were administered on days 0-11, either IP or using ALZET pump (ALZET micro-osmotic pump, model 1002 with a rate of 0.25 μl/hr, DURECT Corporation, Cupertino, USA) to simulate sustained release. Groups 5-7 were administered with the drug combination 30 min before MPTP application, daily during the initial five days (day 0-4), and on the following days (5-11) drugs are administrated approximately at the same time each dosing day. The ALZET pump was intraperitonealy implanted 15-17 hours before first MPTP administration (groups 8-10), and the total amount of drugs applied by the pump during the dosing period was identical to that given to the IP-injected groups. Controls were naïve untreated mice injected with saline, and MPTP-administered mice injected with saline.
Body weight was measured prior to dosing and every day during the dosing, and individual body weight changes were calculated. Clinical signs were recorded twice weekly throughout the entire study. At study termination day 12, all animals were euthanatized via CO2 asphyxiation. The brain was rapidly removed, placed on a refrigerated plate and dissected. The left and right striatum were removed, weighted, snap-frozen in liquid nitrogen, and stored in −70° C. until further processing. Striatum tissue samples were prepared for HPLC as described in Experimental.

[3] = rat, in vivo, 1.5 mg/kg
Protocol: The cannulas were placed either in the colon, duodenum and jugular vein for colonic bolus, duodenal bolus and intravenous bolus administration, respectively. A single bolus dose administration to each compartment was done. In addition, a second indwelling cannula was placed in the right vein of each animal for systemic blood sampling. Blood samples (0.5 ml) were taken at 5 minutes pre-dose, 5, 15, 30, 50, 90, 150 and 200 minutes post-dose. To prevent dehydration, equal volumes of physiological solution were administrated to the rats following each withdrawal of blood sample. […] Non-compartmental pharmacokinetic analysis was performed using Excel software. The area under the curve (AUC) was calculated by non-compartmental analysis to the final measurable sample using the linear-log trapezoid method.

6-OHDA rat model of PD = settings: 6-OHDA rats; SR by ALZET pump 28 days compared with daily IP injections; amphetamine 1.5 mg/kg IP, 60 min recording
Source text: Since in PD it is mainly the dopaminergic nigrostriatal pathway that is subject to degeneration, animal models have been developed in which 6-OHDA lesions of the dopaminergic system were made by unilateral injection of the toxin directly into major efferent projection of the nigrostriatal bundle.
Unilaterally lesioning of the Medial Forebrain Bundle (MFB) by 6-OHDA causes unilaterally destruction of the dopaminergic neurons of the nigrostriatal pathway leading to asymmetry in motor behavior of rats. […] More specifically, administration of the DA-releasing agent D-amphetamine creates a dopamine imbalance that favors the nonlesioned nigrostriatal projection and thus produces clockwise rotations. […] Drug-induced rotations are measured using an automated rotometer consisting of a rotation bowl and a swivel attached to the torso of the rat.
Male adult Sprague-Dawley rats weighing 250-300 g were lesioned with 6-OHDA in the middle forebrain bundle (MFB). Rats were anesthetized with Ketamine-Xylazine (85:15) 0.1 ml/100 g and mounted in the stereotaxic apparatus. 6-OHDA was injected into unilateral MFB according to the following stereotaxic coordinates: AP-2.8 mm, ML-2 mm relatively to the bregma, and DV-9 relatively from the Dura. The injection rate was 1 μl/min using an injection pump and Hamilton micro-syringe. […]

| SMILES | brain dopamine levels (MPTP mouse model of PD [1]) | dopamine content compared to naïve mice (MPTP mouse model of PD [2]; acute administration, rasagiline 0.1, 0.12 or 0.15 mg/kg (similar effect)) | dopamine levels compared to naïve mice (MPTP mouse model of PD [2]; rasagiline 0.1 mg/kg) [%] | dopamine levels compared to naïve mice (MPTP mouse model of PD [2]; rasagiline 0.12 mg/kg) [%] | dopamine levels compared to naïve mice (MPTP mouse model of PD [2]; rasagiline 0.15 mg/kg) [%] | F (% of IV dose) [3] [%] | AUC ([3]; iv) | CL ([3]; iv) [mL/min/kg] | T1/2 ([3]; iv) [min] | Vss ([3]; iv) | amphetamine-induced net rotation (CW-CCW) (6-OHDA rat model of PD) |
| --- | --- | --- | --- | --- | --- | --- | --- | --- | --- | --- | --- |
| NC1CCc2ccccc21 (centres unmarked) [aminoindan, 1-aminoindan] | significant restoration of dopamine levels |  |  |  |  |  |  |  |  |  |  |
| C#CCN[C@@H]1CCc2ccccc21 [rasagiline, R(+)—N-propargyl-1-aminoindan] |  | around 60% | 57 | 74 | 88 | ~100 | 23,641 ± 3,481 hr * ng/ml | 54.3 ± 7.1 | 42.7 ± 5.5 | 2,404 ± 408 ml/Kg | significantly improved effect in net rotation |

From patent publication US9943489B2 (PHARMATWOB LTD., priority 2010, dated 2018)
